Experimental data: patent US5308864A, “6-(hydronaphtyl-1-ethyl)-4-hydroxy-3,4,5,6-tetrahydro-2H-pyran-2-ones and the corresponding hydroxy acids” (British Bio-Technology Limited, priority 1989, dated 1994)

What was measured:
[1] = test system: cholesterol biosynthesis in Human hepatoma (HEP G2) cells; assay: Assay for the inhibition of cholesterol biosynthesis in cultured cells (Test B, HEP G2); format: cell-based; settings: 2-14C-acetate incorporation, HEP G2, 3 hours at 37° C.
Procedure: ASSAY FOR THE INHIBITION OF CHOLESTEROL BIOSYNTHESIS IN CULTURED CELLS
Human hepatoma (HEP G2) or fibroblastic (HES-9) cells were grown in Dulbecco's modified Eagle's medium (DMEM) with 10% foetal calf serum, in 6 cm tissue culture dishes until approaching confluence (approximately 4 days). The medium was changed to DMEM with 1% foetal calf serum 24 hours prior to experimentation.
Test compounds that are salts were dissolved in aqueous, physiological buffer. Lactones and esters were dissolved in dimethylsulphoxide.
Test compound were added to the cell monolayers concurrently with 2-^14 C-acetate (5 μCi/ml of incubation volume); control samples receiving vehicle together with radioisotope. The incubation was continued for 3 hours at 37° C.
The IC50 for inhibition of sterol synthesis by test compounds was measured from plots of % inhibition (compared to controls) versus log concentration, using at least 5 concentrations of inhibitor.
This assay, therefore, measures the ability of test substances to inhibit intracellular synthesis of cholesterol.

HMG-CoA reductase = target: T1, HMG-CoA reductase (Rattus norvegicus, UniProt P51639); assay: In vitro determination of inhibitory potential of HMG-CoA reductase inhibitors (Test A, rat liver microsomal enzyme); format: biochemical; settings: HMG-CoA reductase from rat liver microsomes; inhibitors converted to sodium salts
T1 construct: from tissue; host or cells: rat liver microsomes (cholestyramine-induced)
T1 sequence (P51639 1-887): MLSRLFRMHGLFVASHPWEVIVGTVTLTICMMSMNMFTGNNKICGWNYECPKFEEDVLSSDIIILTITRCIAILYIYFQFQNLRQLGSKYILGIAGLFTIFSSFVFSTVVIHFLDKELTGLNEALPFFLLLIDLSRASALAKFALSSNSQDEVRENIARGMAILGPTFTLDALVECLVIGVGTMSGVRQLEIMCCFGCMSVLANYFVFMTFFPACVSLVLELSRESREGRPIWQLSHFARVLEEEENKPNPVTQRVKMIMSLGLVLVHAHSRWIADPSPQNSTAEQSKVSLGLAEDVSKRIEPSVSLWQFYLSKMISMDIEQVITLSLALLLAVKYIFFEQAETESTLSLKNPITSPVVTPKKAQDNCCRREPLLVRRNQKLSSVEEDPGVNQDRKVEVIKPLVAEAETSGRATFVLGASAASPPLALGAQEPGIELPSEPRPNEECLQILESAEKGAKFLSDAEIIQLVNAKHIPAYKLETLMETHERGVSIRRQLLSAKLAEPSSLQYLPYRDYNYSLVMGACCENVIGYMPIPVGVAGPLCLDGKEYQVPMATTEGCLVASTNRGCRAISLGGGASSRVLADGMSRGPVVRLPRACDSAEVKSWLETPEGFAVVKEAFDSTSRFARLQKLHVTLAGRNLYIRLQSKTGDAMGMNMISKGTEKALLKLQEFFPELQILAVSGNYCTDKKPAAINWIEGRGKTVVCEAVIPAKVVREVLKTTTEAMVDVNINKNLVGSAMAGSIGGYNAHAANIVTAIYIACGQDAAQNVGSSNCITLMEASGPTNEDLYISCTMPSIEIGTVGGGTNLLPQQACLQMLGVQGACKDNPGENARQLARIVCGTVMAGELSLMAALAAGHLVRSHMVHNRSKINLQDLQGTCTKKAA
Procedure: HMG-CoA reductase was induced in rats by feeding a normal diet supplemented with 3% cholestyramine resin for one week prior to sacrifice. […] Briefly, the livers were immediately placed in ice-cold buffer I (see below) and homogenised in a Potter-Elvehjem type glass/TEFLON homogeniser (10 passes at 1000 rpm). […] The supernatant was centrifuged at 100,000×g for 75 minutes, the microsomal pellet resuspended in buffer II (see below) and centrifuged at 100,000×g for 75 minutes. The resultant pellet was stored at -70° C. until required for assay purposes.
Membrane bound enzyme isolated as above is used for determining the activity of inhibitors. The assay is performed in a total volume of 300 μl in 100 mM KPO4 pH 7.2 buffer, containing 3 mM MgCl2, 5 mM glucose-6-phosphate, 10 mM reduced glutathione, 1mM NADP, 1 unit glucose-6-phosphate dehydrogenase, and 1 mg/ml BSA, with resuspended enzyme. Putative inhibitors are converted to sodium salts, then dissolved in dimethylsulphoxide and 10 μl aliquots added to the incubation.
The assay is pre-incubated at 37° C. for 10 minutes and initiated by the addition of 0.1 μCi 3-hydroxy-3-methyl-[3-^14 C]glutaryl coenzyme A (52 Ci/Mole) followed by incubating the complete reaction at 37° C. for 10 minutes. At the end of this period the reaction is stopped by adding 300 μl of a 10 mM mevalonolactone solution in 0.1 M hydrochloric acid and the mevalonic acid product allowed to lactonise for a further period of 30 minutes. The product is then isolated by chromatography using Bio-Rex 5 resin and the enzyme activity quantified by liquid scintillation spectrophotometry.
Appropriate controls are included in the assay and IC50 values obtained by graphical means.

[2] = HepG2, inhibition of sterol synthesis

| IC50 (HMG-CoA reductase) [nM] | Structure (SMILES) | IC50 [1, 2] [nM] | IC50 ([1]; HepG2, after hydrolysis, inhibition of sterol synthesis) [nM] |
| --- | --- | --- | --- |
| 30 | CC[C@H](C)C(=O)O[C@H]1C[C@@H](C)C[C@@H]2C=C[C@H](C)[C@H](CC[C@@H]3C[C@@H](O)CC(=O)O3)[C@@H]12 [Dihydromevinolin, reference compound] | 40 |  |
| 15 | C/C=C\[C@@H]1C[C@H](OC(=O)[C@@H](C)CC)[C@@H]2[C@@H](CC[C@@H](O)C[C@@H](O)CC(=O)O)[C@@H](C)C=C[C@H]2C1 [Compound B, Sodium (1S,2S,4aR,6S,8S,8aS,3'R,5'R,2"S)-7'-(1,2,4a, 5,6,7,8,8a-octahydro-2-methyl-8[(2"-methyl-1"-oxobutyl)oxy]-6-[(Z)-prop-1-enyl]-1-naphthalenyl)-3',5'-dihydroxyheptanoate] | 60 |  |
| 3 | C/C=C/[C@@H]1C[C@H](OC(=O)C(C)(C)CC)[C@@H]2[C@@H](CC[C@@H](O)C[C@@H](O)CC(=O)O)[C@@H](C)C=C[C@H]2C1 [Compound N, Sodium (1S,2S,4aR,6S,8S,8aS,3'R,5'R)-7'-(1,2,4a,5,6,7,8,8a-octahydro-2-methyl-8-[(2"-dimethyl-1"-oxobutyl)oxy]-6-[(E)-prop-1enyl]-1-naphthalenyl)-3',5'-dihydroxyheptanoate] | 7 |  |
|  | C/C=C/[C@@H]1C[C@H](OC(=O)[C@@H](C)CC)[C@@H]2[C@@H](CC[C@@H]3C[C@@H](O)CC(=O)O3)[C@@H](C)C=C[C@H]2C1 [Compound G, (1S,2S,4aR,6S,8S,8aS,4'R,6'R,2"S)6'-{2-(1,2,4a,5,6,7,8,8a-octahydro-2-methyl-8[(2"-methyl-1"-oxobutyl)oxy]-6-[(E)-prop-1-enyl]-1-naphthalenyl)ethyl}-tetrahydro-4'-hydroxy-2H-pyran-2'-one] |  | 25 |
